The values below come from US20230270692A1, “COMPOUNDS FOR CHRONIC DISORDERS” (Pillai Universal LLC, priority 2020, published 2023).

SMILES strings stand for the structures. In brackets after ≈: the same amount, converted by molar mass. Read-outs that look alike come from different tables or passages of the source.

Data set [1] has as its system Pancreatic adenocarcinoma cells (PANC). The experiment in a line: MTT cell viability of pancreatic cancer cells. The format is cell-based, Human. The protocol: The synthesized compounds of Formula 1-4 were evaluated for cell proliferation, apoptosis, cell cycle arrest, the generation of reactive oxygen species and calcium were measured using MTT assay and flow cytometry, respectively. The expression of apoptosis- and proliferation-related proteins was determined by western blotting. The effect of molecules on apoptosis-related mRNA expression in cancer cells was detected by RT-PCR.
Changes in cell morphology were detected by the presence of cell membrane blebbing, chromatin condensation, and formation of apoptotic bodies (FIG. 10A).

The test system of the next data set is Vero cells. The conditions noted are these: any of the concentrations tested.
The next data set deals with cancer stem cells. The experiment in a line: Cancer stem cell marker expression. The format is cell-based. The text has this: CSCs have significant impact on the tumor progression, drug resistance, recurrence and metastasis in different types of malignancies. Conventional cancer chemotherapy often fails as most anti-cancer drugs are not effective against drug-resistant CSCs. These surviving CSCs lead to relapse and metastasis. Most studies report that conventional therapeutic agents have limited access to the CSCs due to their hypoxic microenvironment and distant location from the vasculature that retards the efficacy of anti-CSC drugs (FIG. 14). However, the disclosed compounds may overcome this limitation and may penetrate into a deeper location and destroy CSCs. Accordingly, in embodiments, the present invention provides a method of inhibiting cancer stem cell survival and/or self-renewal comprising administering to a cancer stem cell an effective amount of a compound disclosed herein, e.g., Compound I (FIG. 13).
The compounds of the disclosure inhibited the expression of the genes in the follow cancers (FIG. 18): • Breast: CD44+CD24−/low Lineage−, ALDH-1high • Liver: CD133+, CD49f+, CD90+ • Colon: CD133+, CD44+, CD166+, EpCAM+, CD24+ • Pancreatic: CD133+, CD44+, EpCAM+, CD24+ • Leukemia: CD34+CD38− • Lungs: CD133+, ABCG2^High • Leukemia: CD34+, CD38−, HLA−, DR−, CD71−, CD90−, CD117−, CD123+
Reduction of stem cell surface marker expressions are seen within 1 hour and up to a maximum of […]. […]

The next data set has as its system SARS-CoV-2. The experiment in a line: Antiviral activity against SARS-CoV-2 in Calu-3 cells. The format is cell-based.
Data set [2] concerns histone H3 acetylation, acetyl-α-tubulin. The experiment in a line: Histone H3 / α-tubulin acetylation western blot in PANC cells. It is filed as cell-based, Human. The method, then: Class I HDAC expression during pancreatic tumorigenesis was next examined. Briefly different concentration of Compound I were added and incubated for 24 h. […] Inhibition of Class I HDACs is associated with the upregulation of histone H3 acetylation and p21 mRNA and protein expression which have associated with the anti-proliferative activity. It has also been reported that HDAC6 functions as a α-tubulin deacetylase, modulating tubulin stability. Because α-tubulin and histone H3 are mutual downstream targets of HDACs, the relationship between protein expression and function of molecules was further examined. The effects of Compound I on histone H3 acetylation in PANC cells using western blot analysis was studied.
(Immunoblotting shows a protein as a band on a membrane.)

On to `COc1cc(/C=C/C(=O)/C=C/C=C/c2cc(OC)c(O)c(OC)c2)cc(OC)c1` [Compound I], for which, in data set [1] (24 and 48 h, 1-100 μg/mL), the cell viability result is “decreased significantly in time- and dose-dependent manners”. The cytotoxicity at 10 µg/mL in data set [1] (Homo sapiens, Pancreatic cancer cell, read-out: decrease in viable cells) was roughly 65.5%. The IC50 in data set [1] (Homo sapiens, Pancreatic cancer cell, PANC cells, after 24 hours of exposure) is 5.74 ± 0.02 µg/mL (≈ 14.5 µM); with SARS-CoV-2 (Severe acute respiratory syndrome coronavirus 2, Calu-3, read-out: average half-maximum effective concentration (IC50)), 1.5 µM; in the data set with SARS-CoV-2 (Severe acute respiratory syndrome coronavirus 2, Calu-3, read-out: calculated IC50 (viral genomic RNA in supernatants, qRT-PCR)), 5 µM; in the data set with SARS-CoV-2 (Severe acute respiratory syndrome coronavirus 2, Calu-3 cultures, 0.1-5 μM, read-out: average IC50 (reduction in replication)), 0.01 µM; with SARS-CoV-2 (Severe acute respiratory syndrome coronavirus 2, calu-3 cell line, replication, read-out: IC 50) it was 10 µM. Moreover, in the data set on Vero cells, the Toxicity result is recorded as “no toxicity was observed”. Further, the “cancer stem cell markers / gene expression” value in the data set with cancer stem cells is “inhibition”. In addition, the “inhibition of intracellular SARS-CoV-2 RNA levels” value in the data set on SARS-CoV-2 (Calu-3, 24 h p.i., RT-PCR) is “more than 95 % of control”. In the data set on SARS-CoV-2 (calu-3, 10 μM Compound I treated cells), the “virus titer of treated cells” value was no more than 102 TCID50/ml. Besides, the acetyl-α-tubulin result in data set [2] is “no acetyl-α-tubulin was detected”. Also, the “histone H3 acetylation” value in data set [2] (compared with control) is “stronger hyperacetylation”.
